The record followed here is patent publication US20230141600A1, “IMIDAZOPYRAZINE DERIVATIVES” (priority 2020, published 2023).

The term IC90 denotes the point of the concentration-response curve where the effect stands at 90%.

Each structure is given as a SMILES string. Structures can show the parent of a compound that is named as a salt.

For one experiment, the system named is Acinetobacter baumannii ATCC17961. Kind of experiment: 90% growth inhibitory concentration (IC90) determination, antimicrobial susceptibility testing. The note with it: Acinetobacter baumannii, ATCC17961, 16 h, 90% growth inhibition, Iso-Sensitest broth, OD 600 nm over 16 h, 35±2° C.; read-out: ATCC 17961 IC90. It is filed as cell-based. On the procedure: Antimicrobial Susceptibility Testing:
90% Growth Inhibitory Concentration (IC90) Determination
The in vitro antimicrobial activity of the compounds was determined according to the following procedure:
The assay used a 10-points Iso-Sensitest broth medium to measure quantitatively the in vitro activity of the compounds against Acinetobacter baumannii ATCC17961 and ATCC17978.
Stock compounds in DMSO were serially twofold diluted (e.g. range from 50 to 0.097 μM final concentration) in 384 wells microtiter plates and inoculated with 49 μl the bacterial suspension in Iso-Sensitest medium to have a final cell concentration of ˜5×10^(5) CFU/ml in a final volume/well of 50 ul/well. Microtiter plates were incubated at 35±2° C.
Bacterial cell growth was determined with the measurement of optical density at λ=600 nm each minutes over a time course of 16 h. Growth inhibition was calculated during the logarithmic growth of the bacterial cells with determination of the concentration inhibiting 50% (IC50) and 90% (IC90) of the growth.
Table 2 provides the 90% growth inhibitory concentrations (IC90) in micromoles per liter of the compounds of present invention obtained against the strain Acinetobacter baumannii ATCC17961.
For `COc1ccc(-c2cnc3c(Nc4ccc(C(=O)NC5CCN(C(=O)C[N+](C)(C)C)CC5)c(C)c4)nccn23)c(F)c1F` [Example 60, 2-(4-(4-((3-(2,3-Difluoro-4-methoxyphenyl)imidazo[1,2-a]pyrazin-8-yl)amino)-2-methylbenzamido)piperidin-1-yl)-N,N,N-trimethyl-2-oxoethan-1-aminium Chloride], the IC90 was found to be 166 nM.

Turning to `C[N+](C)(C)CC(=O)N1CCN(C(=O)c2ccc(Nc3nccn4c(-c5c[nH]nc5C(F)(F)F)cnc34)cc2Cl)CC1` [Example 62, [2-[4-[2-Chloro-4-[[3-[3-(trifluoromethyl)-1H-pyrazol-4-yl]imidazo[1,2-a]pyrazin-8-yl]amino]benzoyl]piperazin-1-yl]-2-oxo-ethyl]-trimethyl-ammonium Formate], the IC90 was determined as 449 nM.

Regarding `COc1ccc(-c2cnc3c(Nc4ccc(C(=O)N[C@H]5CC[C@@H](NC(=O)C[N+](C)(C)C)CC5)c(C)c4)nccn23)c(F)c1F` [Example 63, 2-(((1s,4s)-4-(4-((3-(2,3-Difluoro-4-methoxyphenyl)imidazo[1,2-a]pyrazin-8-yl)amino)-2-methylbenzamido)cyclohexyl)amino)-N,N,N-trimethyl-2-oxoethan-1-aminium Chloride], the IC90 was determined as 81.1 nM.

With `Cc1cc(Nc2nccn3c(-c4cn(CC#N)nc4C(F)(F)F)cnc23)ccc1C(=O)N1CCN(C(=O)C[N+](C)(C)C)CC1` [Example 64, [2-[4-[4-[[3-[1-(Cyanomethyl)-3-(trifluoromethyl)pyrazol-4-yl]imidazo[1,2-a]pyrazin-8-yl]amino]-2-methyl-benzoyl]piperazin-1-yl]-2-oxo-ethyl]-trimethyl-ammonium Formate], the IC90 came to 780 nM.

`C[N+](C)(C)CC(=O)N1CCN(C(=O)c2ccc(Nc3nccn4c(-c5cn(CC#N)nc5C(F)(F)F)cnc34)cc2Cl)CC1` [Example 65, [2-[4-[2-Chloro-4-[[3-[1-(cyanomethyl)-3-(trifluoromethyl)pyrazol-4-yl]imidazo[1,2-a]pyrazin-8-yl]amino]benzoyl]piperazin-1-yl]-2-oxo-ethyl]-trimethyl-ammonium Formate]: the IC90 stood at 546 nM.

Regarding `COc1ccc(-c2cnc3c(Nc4ccc(C(=O)N[C@H]5C[C@@H](NCC[N+](C)(C)C)C5)c(Cl)c4)nccn23)c(F)c1F` [Example 66, 2-[[3-[[2-Chloro-4-[[3-(2,3-difluoro-4-methoxy-phenyl)imidazo[1,2-a]pyrazin-8-yl]amino]benzoyl]amino]cyclobutyl]amino]ethyl-trimethyl-ammonium Formate], the 90% effect concentration (IC90) is 57.2 nM.

Turning to `COc1ccc(-c2cnc3c(Nc4ccc(C(=O)N[C@H]5CCN(C(=O)C[N+](C)(C)C)C5)c(C)c4)nccn23)c(F)c1F` [Example 67, (S)-2-(3-(4-((3-(2,3-Difluoro-4-methoxyphenyl)imidazo[1,2-a]pyrazin-8-yl)amino)-2-methylbenzamido)pyrrolidin-1-yl)-N,N,N-trimethyl-2-oxoethan-1-aminium Chloride], the IC90 came out at 44.8 nM.

On to `COc1ccc(-c2cnc3c(Nc4ccc(C(=O)NC5CCCN(C(=O)C[N+](C)(C)C)C5)c(C)c4)nccn23)c(F)c1F` (stereo not drawn) [Example 68, 2-(3-(4-((3-(2,3-Difluoro-4-methoxyphenyl)imidazo[1,2-a]pyrazin-8-yl)amino)-2-methylbenzamido)piperidin-1-yl)-N,N,N-trimethyl-2-oxoethan-1-aminium Chloride], for which the IC90 was found to be 168 nM.

In the case of `COc1ccc(-c2cnc3c(Nc4ccc(C(=O)N[C@H]5CC[C@H](NC(=O)C[N+](C)(C)C)CC5)c(C)c4)nccn23)c(F)c1F` [Example 69, 2-(((1r,4r)-4-(4-((3-(2,3-Difluoro-4-methoxyphenyl)imidazo[1,2-a]pyrazin-8-yl)amino)-2-methylbenzamido)cyclohexyl)amino)-N,N,N-trimethyl-2-oxoethan-1-aminium Chloride], the IC90 stood at 263 nM.

`COc1ccc(-c2cnc3c(Nc4ccc(C(=O)N[C@@H]5CCN(C(=O)C[N+](C)(C)C)C5)c(C)c4)nccn23)c(F)c1F` [Example 70, (R)-2-(3-(4-((3-(2,3-difluoro-4-methoxyphenyl)imidazo[1,2-a]pyrazin-8-yl)amino)-2-methylbenzamido)pyrrolidin-1-yl)-N,N,N-trimethyl-2-oxoethan-1-aminium Chloride]: the IC90 turned out to be 44.5 nM.

In the case of `CCc1cc(Nc2nccn3c(-c4ccc(OC)c(F)c4F)cnc23)ccc1C(=O)NC1CN(C(=O)C[N+](C)(C)CC(N)=O)C1` [Example 71, 2-Amino-N-(2-(3-(4-((3-(2,3-difluoro-4-methoxyphenyl)imidazo[1,2-a]pyrazin-8-yl)amino)-2-ethylbenzamido)azetidin-1-yl)-2-oxoethyl)-N,N-dimethyl-2-oxoethan-1-aminium Formate], the IC90 worked out at 67.7 nM.

Consider `COc1ccc(-c2cnc3c(Nc4ccc(C(=O)N[C@H]5C[C@@H](NC(=O)C[N+](C)(C)C)C5)c(C)c4)nccn23)c(F)c1F` [Example 72, 2-(((1s,3s)-3-(4-((3-(2,3-Difluoro-4-methoxyphenyl)imidazo[1,2-a]pyrazin-8-yl)amino)-2-methylbenzamido)cyclobutyl)amino)-N,N,N-trimethyl-2-oxoethan-1-aminium Chloride], for which the IC90 turned out to be 40.3 nM.

Regarding `COc1ccc(-c2cnc3c(Nc4ccc(C(=O)NCCC[N+](C)(C)CCO)c(Cl)c4)nccn23)c(F)c1F` [Example 73, 3-(2-chloro-4-((3-(2,3-difluoro-4-methoxyphenyl)imidazo[1,2-a]pyrazin-8-yl)amino)benzamido)-N-(2-hydroxyethyl)-N,N-dimethylpropan-1-aminium Formate], the IC90 is 121 nM.

On to `CCc1cc(Nc2nccn3c(-c4ccc(OC)c(F)c4F)cnc23)ccc1C(=O)NCCOCC[N+](C)(C)CC#N` [Example 74, N-(Cyanomethyl)-2-(2-(4-((3-(2,3-difluoro-4-methoxyphenyl)imidazo[1,2-a]pyrazin-8-yl)amino)-2-ethylbenzamido)ethoxy)-N,N-dimethylethan-1-aminium Formate], for which the 90% effect concentration (IC90) is 31 nM.

In the case of `CCOC(=O)C[N+](C)(C)CCOCCNC(=O)c1ccc(Nc2nccn3c(-c4ccc(OC)c(F)c4F)cnc23)cc1CC` [Example 75, N-(2-(2-(4-((3-(2,3-Difluoro-4-methoxyphenyl)imidazo[1,2-a]pyrazin-8-yl)amino)-2-ethylbenzamido)ethoxy)ethyl)-2-ethoxy-N,N-dimethyl-2-oxoethan-1-aminium Formate], the IC90 came out at 65.8 nM.

For the molecule `CCc1cc(Nc2nccn3c(-c4ccc(OC)c(F)c4F)cnc23)ccc1C(=O)NCCCCC[N+](C)(C)CC(N)=O` [Example 76, Mono(N-(2-amino-2-oxoethyl)-5-(4-((3-(2,3-difluoro-4-methoxyphenyl)imidazo[1,2-a]pyrazin-8-yl)amino)-2-ethylbenzamido)-N,N-dimethylpentan-1-aminium) monoformate Monoiodide], the IC90 was 27.4 nM.

Take `CCc1cc(Nc2nccn3c(-c4ccc(OC)c(F)c4F)cnc23)ccc1C(=O)N[C@H]1CC[C@H](NC(=O)C[N+](C)(C)C)CC1` [Example 77, Trans-[2-[[4-[[4-[[3-(2,3-Difluoro-4-methoxyphenyl)imidazo[1,2-a]pyrazin-8-yl]amino]-2-ethylbenzoyl]amino]cyclohexyl]amino]-2-oxoethyl]-trimethylazanium formate]: the IC90 stood at 342 nM.

For the molecule `CCc1cc(Nc2nccn3c(-c4cn(CC#N)nc4C(F)(F)F)cnc23)ccc1C(=O)NCCOCC[N+]1(CC#N)CCOCC1` [Example 78, 4-(Cyanomethyl)-4-(2-(2-(4-((3-(1-(cyanomethyl)-3-(trifluoromethyl)-1H-pyrazol-4-yl)imidazo[1,2-a]pyrazin-8-yl)amino)-2-ethylbenzamido)ethoxy)ethyl)morpholin-4-ium Formate], the IC90 is 467 nM.

As for `CCc1cc(Nc2nccn3c(-c4ccc(OC(F)F)c(F)c4F)cnc23)ccc1C(=O)NCCCCC[N+](C)(C)CC(=O)N1CCNCC1` [Example 79, 5-[[4-[[3-[4-(Difluoromethoxy)-2,3-difluoro-phenyl]imidazo[1,2-a]pyrazin-8-yl]amino]-2-ethyl-benzoyl]amino]pentyl-dimethyl-(2-oxo-2-piperazin-1-yl-ethyl)ammonium bis(2,2,2-trifluoroacetate)], the IC90 stood at 82.2 nM.

Regarding `CCc1cc(Nc2nccn3c(-c4ccc(OC(F)F)c(F)c4F)cnc23)ccc1C(=O)NCC1C2C[N+](C)(CC3CNC3)CC12` (stereo not drawn) [Example 80, N-[[3-(azetidin-3-ylmethyl)-3-methyl-3-azoniabicyclo[3.1.1]hexan-6-yl]methyl]-4-[[3-[4-(difluoromethoxy)-2,3-difluoro-phenyl]imidazo[1,2-a]pyrazin-8-yl]amino]-2-ethyl-benzamide bis(2,2,2-trifluoroacetate)], the IC90 was 95.9 nM.

Still in this experiment, the particulars now being: Acinetobacter baumannii, ATCC17961, 16 h, read-out: ATCC 17961 IC90.
For `C[N+](C)(C)CC(=O)N[C@H]1C[C@@H](NC(=O)c2ccc(Nc3nccn4c(-c5c[nH]nc5C(F)(F)F)cnc34)cc2Cl)C1` [Example 61, [2-[[3-[[2-Chloro-4-[[3-[3-(trifluoromethyl)-1H-pyrazol-4-yl]imidazo[1,2-a]pyrazin-8-yl]amino]benzoyl]amino]cyclobutyl]amino]-2-oxo-ethyl]-trimethyl-ammonium Formate], the IC90 was determined as 478 nM.
